Where a SMILES comes first, the peptide text is derived from it.

Series [1] has as its target T1, 3H-CCK-8-(SO3H) binding, rat pancreas homogenate (Rattus norvegicus, UniProt P30551).
T1 construct: tissue homogenate (striatum 0.26 mg protein in 2 ml final volume; pancreas 0.165 mg protein in 1 ml final volume); from tissue; host or cells: rat pancreas membrane homogenate
T1 sequence (P30551 1-444): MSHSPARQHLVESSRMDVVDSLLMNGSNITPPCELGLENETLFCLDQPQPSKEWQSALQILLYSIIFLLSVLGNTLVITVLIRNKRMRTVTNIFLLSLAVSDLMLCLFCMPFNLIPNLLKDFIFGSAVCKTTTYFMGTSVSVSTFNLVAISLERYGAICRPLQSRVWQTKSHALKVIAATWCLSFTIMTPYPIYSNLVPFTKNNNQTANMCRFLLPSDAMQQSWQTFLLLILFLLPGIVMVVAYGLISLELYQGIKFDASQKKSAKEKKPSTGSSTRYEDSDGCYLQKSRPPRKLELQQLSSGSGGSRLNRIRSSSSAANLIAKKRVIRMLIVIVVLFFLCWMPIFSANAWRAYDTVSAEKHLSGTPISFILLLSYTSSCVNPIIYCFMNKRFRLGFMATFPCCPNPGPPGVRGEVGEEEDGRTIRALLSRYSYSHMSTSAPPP
Put plainly: In vitro receptor binding assay, rat pancreas. The conditions noted are these: 0.15 nM 3H-CCK-8-(SO3H), 30 min, 25° C.; read-out: Rat Pancreas IC50 (inhibition of specific 3H-CCK-8-(SO3H) binding). The method, then: (§1) The tissue was homogenized 2× for approx. 15 sec. at 0° C. using a Polytron homogenizer at a setting of 6. The tissue was isolated by centrifugation at 48,000×g for 10 min. at 0° C. […] Samples were incubated for 30 min. at 25° C. and the incubation terminated by pouring the mixture onto a pre-wet Whatman GF/B filter on a Sandbeck Vacuum Filtration Manifold. The incubation tubes were washed with 2×3 ml of ice-cold HEPES Buffer #2 and the wash filtered through the GF/B filter. The filter was air dried for 10 min. and then placed in a scintillation vial with 12 ml of Beckman HP/b Ready-Solv scintillation cocktail. The vials were shaken for 2-12 hours and then counted using a Beckman Model 7800 liquid scintillation spectrometer.

For series [2], the target named is T2, 3H-CCK-8-(SO3H) binding, bovine striatum homogenate (Bos taurus, UniProt P79266).
T2 construct: tissue homogenate (striatum 0.26 mg protein in 2 ml final volume; pancreas 0.165 mg protein in 1 ml final volume); from tissue; host or cells: bovine striatum membrane homogenate
T2 sequence (P79266 1-454): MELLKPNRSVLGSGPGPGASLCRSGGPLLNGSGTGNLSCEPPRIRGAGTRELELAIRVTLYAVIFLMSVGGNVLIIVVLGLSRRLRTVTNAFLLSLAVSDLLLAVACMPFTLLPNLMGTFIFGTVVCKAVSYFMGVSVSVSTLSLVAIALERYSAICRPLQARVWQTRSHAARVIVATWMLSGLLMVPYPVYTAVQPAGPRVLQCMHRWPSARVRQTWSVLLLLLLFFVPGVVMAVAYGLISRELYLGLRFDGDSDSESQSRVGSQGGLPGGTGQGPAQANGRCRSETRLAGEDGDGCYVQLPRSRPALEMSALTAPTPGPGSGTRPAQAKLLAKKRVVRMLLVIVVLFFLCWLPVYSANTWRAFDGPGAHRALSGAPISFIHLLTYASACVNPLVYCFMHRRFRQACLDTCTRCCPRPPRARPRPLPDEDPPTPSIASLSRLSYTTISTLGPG
In words: In vitro receptor binding assay, bovine striatum. The conditions noted are these: 0.15 nM 3H-CCK-8-(SO3H), 30 min, 25° C.; read-out: Bovine Striatum IC50 (inhibition of specific 3H-CCK-8-(SO3H) binding). The method, then:
as §1

For series [3], the system named is food intake in lean and obese men. The following applies: infusions in lean and obese men; cited from earlier work.
The next series can be described thus: in vitro. The conditions noted are these: human, real gastrointestinal fluid or homogenate.
Series [4] deals with food intake of meal-trained male Sprague-Dawley (CD) rats. In words: Two-meal feeding assay. Format: in vivo, rat. The conditions noted are these: dose 32 microgm/kg i.p. 15 min before first meal; mean ± SEM. As for the experimental part: Male Sprague-Dawley (CD) rats weighing 180-200 grams (Charles River Breeding Laboratories) were acclimated to a 12 h light/dark cycle (6 a.m. to 6 p.m.) in a room kept at 22° C. They were subsequently fasted for two days, weighed, placed in individual cages, and a four-day period of meal training was begun. During this time the rats were given ground laboratory chow (Purina Lab Chow) in jars for one hour from 9:00 a.m. until 10:00 a.m., the jars were removed from 10:00 a.m. to 12:00 p.m., and placed back in the cages from 12:00 until 1:00 p.m. Under this `1-2-1` meal feeding regime, most rats learn to eat approximately as much per day during the two hours they have access to food as rats which have food ad libitum over the entire 24-hour day. On the fourth day, the rats were weighed again, and any which lost more than five grams body weight were excluded from the test. The animals were then distributed into experimental (n=5 to 6) and control groups (n=6-12), but not matched for body weight.
Peptides of the invention were suspended either in saline, if soluble, or in 1% gum arabic, if insoluble, at concentrations of 32 to 320 μg/ml/kg body weight and were administered intraperitonerally 15 min before the first meal on day 5 of meal feeding. […] Food intake was expressed as a mean and standard error of the mean as a percent of control values for the various groups. […]

`CSCC[C@@H]1NC(=O)[C@H](Cc2c[nH]c3ccccc23)NC(=O)CNC(=O)[C@@H](NC(=O)[C@H](Cc2ccc(OS(=O)(=O)O)cc2)NC(C)=O)CCCCNC(=O)C[C@@H](C(=O)N[C@@H](Cc2ccccc2)C(N)=O)NC1=O` (HELM PEPTIDE1{[ac].[O=C([C@H](Cc1ccc(OS(=O)(=O)O)cc1)N[*:1])[*:2]].K.G.W.M.D.F.[am]}$PEPTIDE1,PEPTIDE1,3:R3-7:R3$$$V2.0): the figures for the IC50 in series [1] and in series [2] were 45 nM and > 1000 nM, respectively.
As for `CCCC[C@@H]1NC(=O)[C@H](Cc2c[nH]c3ccccc23)NC(=O)CNC(=O)[C@@H](NC(=O)[C@H](Cc2ccc(OS(=O)(=O)O)cc2)NC(C)=O)CCCCNC(=O)C[C@@H](C(=O)N(C)[C@@H](Cc2ccccc2)C(N)=O)NC1=O` (HELM PEPTIDE1{[ac].[O=C([C@H](Cc1ccc(OS(=O)(=O)O)cc1)N[*:1])[*:2]].K.G.W.[Nle].D.[meF].[am]}$PEPTIDE1,PEPTIDE1,3:R3-7:R3$$$V2.0), the IC50 is 6600 nM in series [1] and > 1000 nM in series [2].
On to `CSCC[C@@H]1NC(=O)[C@H](Cc2c[nH]c3ccccc23)NC(=O)CNC(=O)[C@@H](NC(=O)[C@H](Cc2ccc(OS(=O)(=O)O)cc2)NC(C)=O)CCCNC(=O)C[C@@H](C(=O)N(C)[C@@H](Cc2ccccc2)C(N)=O)NC1=O` (HELM PEPTIDE1{[ac].[O=C([C@H](Cc1ccc(OS(=O)(=O)O)cc1)N[*:1])[*:2]].[Orn].G.W.M.D.[meF].[am]}$PEPTIDE1,PEPTIDE1,3:R3-7:R3$$$V2.0), for which the IC50 turned out to be 13000 nM in series [1] and 52000 nM in series [2].
`CSCC[C@H](NC(=O)[C@H](Cc1ccc(OS(=O)(=O)O)cc1)NC(=O)[C@@H](N)CC(=O)O)C(=O)NCC(=O)N[C@@H](Cc1c[nH]c2ccccc12)C(=O)N[C@@H](CCSC)C(=O)N[C@@H](CC(=O)O)C(=O)N[C@@H](Cc1ccccc1)C(N)=O` [CCK-8, H-Asp-Tyr-(SO3 H)-Met-Gly-Trp-Met-Asp-Phe-NH2]: the IC50 in series [1] fell in the range of 1 to 3.2 nM. In addition, the IC50 in series [2] was in the range of 1 to 4.6 nM. Besides, the “Effect of infusion on food intake” value in series [3] is “decrease food intake”. Besides, in the series “in vitro”, the metabolised at 0.25 h, 0.5 mg/mL was found to be 90% and the metabolised at 1 h, 0.5 mg/mL worked out at 100%. Besides, in series [4], the “Food Intake 1st Meal” value was 27 ± 17 % of Control and the “Food Intake 2nd Meal” value is on record as 149 ± 6 % of Control.
Regarding `CSCC[C@@H]1NC(=O)[C@H](Cc2c[nH]c3ccccc23)NC(=O)CNC(=O)[C@@H](NC(=O)[C@H](Cc2ccc(OS(=O)(=O)O)cc2)NC(C)=O)CCCCNC(=O)C[C@@H](C(=O)N(C)[C@@H](Cc2ccccc2)C(N)=O)NC1=O` [Example 1] (HELM PEPTIDE1{[ac].[O=C([C@H](Cc1ccc(OS(=O)(=O)O)cc1)N[*:1])[*:2]].K.G.W.M.D.[meF].[am]}$PEPTIDE1,PEPTIDE1,3:R3-7:R3$$$V2.0), the IC50 is 1500 nM in series [1] and 3000 nM in series [2]. Also, the metabolised at 1 h, 0.5 mg/mL in the series “in vitro” is 1.4%.
With `CSCC[C@@H]1NC(=O)[C@H](Cc2ccc(OS(=O)(=O)O)cc2)NC(=O)CC[C@@H](C(=O)N[C@H](C(=O)N(C)[C@@H](Cc2ccccc2)C(N)=O)[C@@H](C)OS(=O)(=O)O)NC(=O)[C@H](Cc2c[nH]c3ccccc23)NC(=O)CNC1=O` [Example 3] (HELM PEPTIDE1{[O=C([C@H](Cc1ccc(OS(=O)(=O)O)cc1)N[*:1])[*:2]].M.G.W.E.[C[C@@H](OS(=O)(=O)O)[C@H](N[*:1])C(=O)[*:2]].[meF].[am]}$PEPTIDE1,PEPTIDE1,1:R1-5:R3$$$V2.0), the IC50 in series [1] and in series [2] was > 10000 nM in each case.

In general, IC50 refers to the midpoint of a concentration-inhibition curve.

These data come from patent publication US4808701A, “Cyclic peptides having appetite regulating activity” (Hoffmann-La Roche Inc., priority 1987, dated 1989).
